# Test results reported in paper PMC9134315, “Systemic Administration of a Brain Permeable Cdk5 Inhibitor Alters Neurobehavior” (Frontiers in Pharmacology, 2022).
# Read-outs that look alike come from different tables or passages of the source.
# Assay: Pharmacokinetic profile in mice after I.V. injection (LC-MS/MS of plasma, brain, liver, kidney)
# Type: in vivo, mouse
# Conditions: for AUC(0-t): read-out: AUC24h; for concentration at 24 h: read-out: Clast; for k el: read-out: Ke (converted)
# Method: The wild-type group housed male C57BL/6 mice 10–12 weeks of age were used for all in vivo, ex vivo, and behavioral studies. This age range was selected to be consistent with previous studies of conditional Cdk5 knockout mice ([Plattner et al., 2015]). 25–106 was administered in a 20-fold dose range intravenously (I.V.) at 10, 50, 100, and 200 mg/kg for pharmacokinetic studies. This delivery mode was used as I.V. injections to avoid first-pass drug metabolism observed using other injection methods ([Pond and Tozer, 1984]). […] All animal experiments were performed under approved protocols by the University of Alabama at Birmingham (UAB) Institutional Animal Care and Use Committees and in accordance with the guidelines of the Animal Welfare Act and the Guide for the Care and Use of Laboratory Animals.
# A quantitative determination of 25–106 in mouse plasma and tissue homogenate was accomplished by the use of protein precipitation and high-performance liquid chromatography with tandem mass spectrometry detection (LC-MS/MS). 5-(N,N-hexamethylene) amiloride (HMA) was used as the internal standard (IS). 25–106 and IS were typically extracted from 50 µL of mouse plasma or tissue homogenate using protein precipitation with methanol. The extracts were analyzed by reverse-phase chromatography using an ACE Excel 3 C18-PFP column under isocratic conditions at a flow rate of 500 μL/min. The column temperature was maintained at 40°C. The mobile phase A consisted of 0.1% formic acid in water, and the mobile phase B was acetonitrile. A triple–quadrupole mass spectrometer (AB Sciex 5,000) equipped with TurboV IonSpray operating in positive-ion mode was used. Column effluents were analyzed by multiple reaction monitoring (MRM). The precursor/product transitions are 346.1 to 137.1 m/z for 25–106 and 312.37 to 129.5 m/z for IS. The calibration curve was fit using weighted (1/x^2) linear regression analysis of the 25–106/IS peak area ratio vs. the 25–106 concentration from 1.0–80.0 ng/ml (ng/g for tissue) for the low curve and 80.0–10,000 ng/ml (ng/g for tissue) for the high curve. The concentrations of incurred and quality control samples were calculated with the same regression analysis, and the results were reported in ng/mL (plasma) or ng/g (tissue) of 25–106.
# To assess the pharmacokinetic and pharmacodynamic parameters of 25–106 in vivo, we utilized the LC-MS/MS detection method established above (see Figure 5). The mice were administered IV injections of 25–106 doses of 10, 50, 100, or 200 mg/kg. The animals were euthanized, and organs were harvested at 1, 2, 6, and 24 h post injection. Within the same experiment, tissues were used for biochemical analysis of 25–106 effects on Cdk5 activity (see Figures 3A, B).
# [1] = male, C57BL/6, mouse, iv, brain, 10 mg/kg I.V.
# [2] = male, C57BL/6, mouse, iv, brain, 50 mg/kg I.V.
# [3] = male, C57BL/6, mouse, iv, brain, 100 mg/kg I.V.
# [4] = male, C57BL/6, mouse, iv, brain, 200 mg/kg I.V.
# [5] = male, C57BL/6, mouse, iv, kidney, 50 mg/kg I.V.
# [6] = male, C57BL/6, mouse, iv, kidney, 100 mg/kg I.V.
# [7] = male, C57BL/6, mouse, iv, kidney, 200 mg/kg I.V.
# [8] = male, C57BL/6, mouse, iv, plasma, 10 mg/kg I.V.
# [9] = male, C57BL/6, mouse, iv, plasma, 50 mg/kg I.V.
# [10] = male, C57BL/6, mouse, iv, plasma, 100 mg/kg I.V.
# [11] = male, C57BL/6, mouse, iv, plasma, 200 mg/kg I.V.
smiles,measurement,setting,value
"COc1cc(CC(=O)Nc2cc(C3CCC3)[nH]n2)cc(OC)c1OC [25–106, N-(5-cyclobutyl-1H-pyrazol-3-yl)-2-(3,4,5-trimethoxyphenyl)acetamide]",detectability in the brain and plasma,"24 h after injection, I.V.",remaining detectable
same,demethylated metabolites detected,"LC-MS/MS, mice",No demethylated metabolite structures
same,V,"brain, 10 mg/kg I.V.",77.39 ± 25.63 L
same,V,"brain, 50 mg/kg I.V.",151.24 ± 58.36 L
same,CL,"brain, 50 mg/kg I.V., 50 mg/kg",16.57 ± 4.19 L/h
same,V,"brain, 100 mg/kg I.V.",126.99 ± 46.68 L
same,CL,"brain, 100 mg/kg I.V., 100 mg/kg",17.75 ± 6.77 L/h
same,V,"brain, 200 mg/kg I.V.",76.07 ± 73.66 L
same,Clast,"kidney, 10 mg/kg I.V.",163 ± 41.67 ng/mL
same,Clast,"kidney, 50 mg/kg I.V.",109.33 ± 42.90 ng/mL
same,V,"kidney, 50 mg/kg I.V.",78.88 ± 16.88 L
same,Clast,"kidney, 100 mg/kg I.V.",119.88 ± 51.83 ng/mL
same,V,"kidney, 100 mg/kg I.V.",172.86 ± 89.05 L
same,Clast,"kidney, 200 mg/kg I.V.",146.45 ± 87.11 ng/mL
same,V,"kidney, 200 mg/kg I.V.",163.98 ± 55.79 L
same,Clast,"liver, 10 mg/kg I.V.",85.18 ± 32.60 ng/mL
same,Clast,"liver, 50 mg/kg I.V.",252.73 ± 200.06 ng/mL
same,Clast,"liver, 100 mg/kg I.V.",150.9 ± 103.92 ng/mL
same,Clast,"liver, 200 mg/kg I.V.",310.9 ± 247.48 ng/mL
same,clearance,"male, C57BL/6, mouse, brain, iv, 10 mg/kg, 10 mg/kg I.V.",66.3 mL/min
same,Cmax,"male, C57BL/6, mouse, brain, iv, 10 mg/kg, brain, 10 mg/kg I.V., read-out: Cmax",101 ± 23.6 ng/g
same,clearance,"male, C57BL/6, mouse, brain, iv, 50 mg/kg, 50 mg/kg I.V.",275 mL/min
same,Cmax,"male, C57BL/6, mouse, brain, iv, 50 mg/kg, brain, 50 mg/kg I.V., read-out: Cmax",118 ± 76.7 ng/g
same,clearance,"male, C57BL/6, mouse, brain, iv, 100 mg/kg, 100 mg/kg I.V.",295 mL/min
same,Cmax,"male, C57BL/6, mouse, brain, iv, 100 mg/kg, brain, 100 mg/kg I.V., read-out: Cmax",377 ± 289 ng/g
same,clearance,"male, C57BL/6, mouse, brain, iv, 200 mg/kg, 200 mg/kg I.V.",188 mL/min
same,Cmax,"male, C57BL/6, mouse, brain, iv, 200 mg/kg, brain, 200 mg/kg I.V., read-out: Cmax",669 ± 316 ng/g
same,half-life,[1],17.2 ± 10.4 h
same,AUC(0-t),[1],80 ± 20 ng·h/mL
same,concentration at 24 h,[1],2.27 ± 1.44 ng/mL
same,k el,[1],1.67e-05 s⁻¹
same,half-life,[2],6.23 ± 1.12 h
same,AUC(0-t),[2],90 ± 30 ng·h/mL
same,concentration at 24 h,[2],2.73 ± 1.75 ng/mL
same,k el,[2],3.06e-05 s⁻¹
same,half-life,[3],5.03 ± 0.69 h
same,AUC(0-t),[3],180 ± 70 ng·h/mL
same,concentration at 24 h,[3],2.88 ± 1.16 ng/mL
same,k el,[3],3.89e-05 s⁻¹
same,half-life,[4],4.39 ± 1.19 h
same,AUC(0-t),[4],960 ± 860 ng·h/mL
same,concentration at 24 h,[4],14 ± 14.5 ng/mL
same,k el,[4],4.72e-05 s⁻¹
same,AUC(0-t),"male, C57BL/6, mouse, iv, kidney, 10 mg/kg I.V.",6300 ± 1690 ng·h/mL
same,half-life,[5],10.2 ± 2.99 h
same,AUC(0-t),[5],7640 ± 1280 ng·h/mL
same,k el,[5],1.94e-05 s⁻¹
same,half-life,[6],13 ± 4.56 h
same,AUC(0-t),[6],9420 ± 3060 ng·h/mL
same,k el,[6],1.67e-05 s⁻¹
same,half-life,[7],9.65 ± 5.34 h
same,AUC(0-t),[7],14400 ± 4630 ng·h/mL
same,k el,[7],2.5e-05 s⁻¹
same,AUC(0-t),"male, C57BL/6, mouse, iv, liver, 10 mg/kg I.V.",3080 ± 1010 ng·h/mL
same,AUC(0-t),"male, C57BL/6, mouse, iv, liver, 50 mg/kg I.V.",2760 ± 980 ng·h/mL
same,AUC(0-t),"male, C57BL/6, mouse, iv, liver, 100 mg/kg I.V.",3320 ± 1280 ng·h/mL
same,AUC(0-t),"male, C57BL/6, mouse, iv, liver, 200 mg/kg I.V.",5440 ± 1950 ng·h/mL
same,half-life,[8],6.5 ± 2.36 h
same,AUC(0-t),[8],5710 ± 2260 ng·h/mL
same,concentration at 24 h,[8],16.3 ± 7 ng/mL
same,k el,[8],3.06e-05 s⁻¹
same,half-life,[9],7.48 ± 0.41 h
same,AUC(0-t),[9],6930 ± 930 ng·h/mL
same,concentration at 24 h,[9],69.7 ± 16.2 ng/mL
same,k el,[9],2.5e-05 s⁻¹
same,half-life,[10],8.37 ± 1.77 h
same,AUC(0-t),[10],8380 ± 780 ng·h/mL
same,concentration at 24 h,[10],79.2 ± 16 ng/mL
same,k el,[10],2.5e-05 s⁻¹
same,half-life,[11],11 ± 6.38 h
same,AUC(0-t),[11],12000 ± 1740 ng·h/mL
same,concentration at 24 h,[11],149 ± 94.1 ng/mL
same,k el,[11],2.22e-05 s⁻¹
same,Cmax,"male, C57BL/6, mouse, kidney, iv, 10 mg/kg, kidney, 10 mg/kg I.V., read-out: Cmax",2950 ng/g
same,clearance,"male, C57BL/6, mouse, kidney, iv, 50 mg/kg, 50 mg/kg I.V.",92.5 mL/min
same,Cmax,"male, C57BL/6, mouse, kidney, iv, 50 mg/kg, kidney, 50 mg/kg I.V., read-out: Cmax",1190 ng/g
same,clearance,"male, C57BL/6, mouse, kidney, iv, 100 mg/kg, 100 mg/kg I.V.",154 mL/min
same,Cmax,"male, C57BL/6, mouse, kidney, iv, 100 mg/kg, kidney, 100 mg/kg I.V., read-out: Cmax",2580 ng/g
same,clearance,"male, C57BL/6, mouse, kidney, iv, 200 mg/kg, 200 mg/kg I.V.",227 mL/min
same,Cmax,"male, C57BL/6, mouse, kidney, iv, 200 mg/kg, kidney, 200 mg/kg I.V., read-out: Cmax",4660 ng/g
same,Cmax,"male, C57BL/6, mouse, liver, iv, 10 mg/kg, liver, 10 mg/kg I.V., read-out: Cmax",1760 ± 526 ng/g
same,Cmax,"male, C57BL/6, mouse, liver, iv, 50 mg/kg, liver, 50 mg/kg I.V., read-out: Cmax",513 ± 22 ng/g
same,Cmax,"male, C57BL/6, mouse, liver, iv, 100 mg/kg, liver, 100 mg/kg I.V., read-out: Cmax",868 ± 378 ng/g
same,Cmax,"male, C57BL/6, mouse, liver, iv, 200 mg/kg, liver, 200 mg/kg I.V., read-out: Cmax",2810 ng/g
same,clearance,"male, C57BL/6, mouse, plasma, iv, 10 mg/kg, 10 mg/kg I.V.",1 mL/min
same,Cmax,"male, C57BL/6, mouse, plasma, iv, 10 mg/kg, plasma, 10 mg/kg I.V., read-out: Cmax",2570 ng/mL
same,clearance,"male, C57BL/6, mouse, plasma, iv, 50 mg/kg, 50 mg/kg I.V.",3.33 mL/min
same,Cmax,"male, C57BL/6, mouse, plasma, iv, 50 mg/kg, plasma, 50 mg/kg I.V., read-out: Cmax",1380 ng/mL
same,clearance,"male, C57BL/6, mouse, plasma, iv, 100 mg/kg, 100 mg/kg I.V.",5.33 mL/min
same,Cmax,"male, C57BL/6, mouse, plasma, iv, 100 mg/kg, plasma, 100 mg/kg I.V., read-out: Cmax",2580 ng/mL
same,clearance,"male, C57BL/6, mouse, plasma, iv, 200 mg/kg, 200 mg/kg I.V.",7.17 mL/min
same,Cmax,"male, C57BL/6, mouse, plasma, iv, 200 mg/kg, plasma, 200 mg/kg I.V., read-out: Cmax",2320 ng/mL
same,V,"plasma, 10 mg/kg I.V.",0.49 ± 0.08 L
same,V,"plasma, 50 mg/kg I.V.",2.14 ± 0.34 L
same,V,"plasma, 100 mg/kg I.V.",3.85 ± 0.55 L
same,Cmax,"plasma, 100 mg/kg I.V., 100 mg/kg","2,577.50 ± 1,004.73 Ng/ml"
same,V,"plasma, 200 mg/kg I.V.",6.12 ± 2.08 L
same,Cmax,"plasma, 200 mg/kg I.V., 200 mg/kg","2,322.50 ± 972.71 Ng/ml"
